Experiments:
Format in all cases: in vivo, C57 mice
[1] = Body weight, bleomycin-induced mice, 24-h modeling; conditions: Dex 1-1.5 mg/kg i.p. every two days
Procedure: Animals of 24-h modeling were randomly divided into 5 groups according to the table below, 3 animals per control group and 5 animals per test group.
(§1) Drug administration began 24 h or 7 d after modeling. […] The day of the first administration was counted as D1, the next day as D2, and so forth. The normal groups and Model groups were given 200 µL of normal saline daily by gavage administration.
All the animals were observed once daily during the experiment for death or dying, feces, ingestion, mental state and behavior and activity. Abnormalities were recorded in time. All the animals were weighed once before grouping and once before each dose.
(§2) In this experiment, 105 C57 mice were randomly selected and subjected to organ drip administration of a single dose of bleomycin at 2.5 mg/kg for 24 h or 7 d for induction. After 7 days of induction, 3 model mice were randomly selected and dissected to determine whether the modeling was successful. After modeling, the survival of the mice was recorded. The living states of the mice were observed and their body weight was measured at a fixed time.
A normal control group comprised 3 mice.

[2] = test system: bleomycin-induced mouse lung disease model; test: Lung and spleen coefficients, 7-d modeling; conditions: Dex 1-1.5 mg/kg i.p. every two days
Procedure: (§3) Animals of 7-d modeling were randomly divided into 7 groups according to the table below, 6 animals per control group and 12 animals per test group.
as §1
Method: after being euthanized, the animals were dissected, and the heart, liver, spleen, lung and kidney were weighed.
as §2
A normal control group comprised 6 mice.

[3] = test system: cytokines in bronchoalveolar lavage fluid; test: Inflammatory factor assay of bronchoalveolar lavage fluid by ELISA; conditions: Dex 1-1.5 mg/kg i.p. every two days
Procedure: as §3, §1
After the mouse was fixed, its trachea and chest cavity were exposed, and the trachea and the esophagus were bluntly separated with an ophthalmic curved forceps. Two sutures were made between the trachea and the esophagus. An intravenous trocar was inserted into the trachea and ligated at the site where it entered the trachea and at its distal end. A 1 mL syringe was connected to draw in 1 mL of pre-cooled PBS and infuse it into the lung tissue. Significant filling in the lung could be seen with the naked eye. The infusion was stopped for 10 s and withdrawal was performed. The infusion/withdrawal cycle was repeated 3 times. The withdrawn BALF was transferred to a clean EP tube and centrifuged at 4° C., and the supernatant was collected and preserved at -80° C. The bronchoalveolar lavage fluid was assayed for inflammatory factors by ELISA.

[4] = test system: bleomycin-induced mouse lung disease model; test: Lung HE pathological analysis (Ashcroft score), 7-d modeling; conditions: 7-d modeling, Dex 1-1.5 mg/kg i.p. every two days
Procedure: as §3, §1
1. […] Specifically, a mold was prepared first, and then the tissue was laid flat at the bottom of the mold; after the section face was arranged facedown, the embedding box cover was put on the mold; molten wax was poured into the mold until it overflowed the mold, and then the mold was gently lifted up and laid flat in a freezing platform; after being rapidly cooled and frozen for about 10 min, the mold was took out. • 6) Sectioning method
2. HE staining • 1) A flat section was selected for HE staining. • 2) The section was dewaxed in xylene I for 20 min. • 3) The section was dewaxed in xylene II for 20 min. • 4) The section was soaked in absolute ethanol for 10 min. • 5) Stepwise rehydrating, in absolute ethanol for 5 min, in 90% ethanol for 5 min, in 80% ethanol for 5 min, and in […] for 5 min; and a water wash. • 6) Staining with hematoxylin for 3-5 min. A water wash. • 7) Differentiating with 1% HCl-[…] for 5-10 s. A water wash, and bluing. • 8) Staining with eosin for 30-60 s. A water wash. • 9) Washing with 80% ethanol for 3-5 s, with 95% ethanol for 3-5 s, and with absolute ethanol for 3-5 s. • 10) Coverslipping with neutral resin, observing under a microscope, and photographing.
HE sectioning: 3 sections were consecutively made; flat sections of complete tissue were selected for HE staining; each of the sections was photographed in 3 randomly selected fields of view at 200x magnification. The obtained images were scored.
The general standard Ashcroft scoring method for pulmonary fibrosis tissues was adopted in HE scoring. The HE pathological analysis is an outcome evaluation for irreversible pulmonary fibrosis that develops in interstitial lung disease models.
For 6 animals from each of the 7-d modeling groups, a total of 18 HE fields of view were scored.

[5] = second half of table, head taken from the 24th table

## C[C@@H]1C[C@H]2[C@@H]3CCC4=CC(=O)C=C[C@]4(C)[C@@]3(F)[C@@H](O)C[C@]2(C)[C@@]1(O)C(=O)CO [Dex, dexamethasone, reference compound]
[1]; D1
  Body weight: 19.92 ± 1.38 g
[1]; D7
  Body weight: 20.02 ± 0.96 g
[1]; D14
  Body weight: 19.24 ± 0.95 g
[1]; D21
  Body weight: 18.90 ± 0.78 g
[1]; D28
  Body weight: 18.56 ± 0.71 g
[1]; D35
  Body weight: 18.36 ± 0.66 g
[1]; day 1 to day 35
  Body weight decreased by: 8.48%
[2]
  Lung coefficient: 0.96±0.08%
  Spleen coefficient: 0.43±0.04%
[3]
  IFN-γ in bronchoalveolar lavage fluid: 66.48 ± 4.88 pg/mL
  NF-κB in bronchoalveolar lavage fluid: 818.72 ± 119.21 pg/mL
  PPAR-γ in bronchoalveolar lavage fluid: 232.49 ± 39.00 pg/mL
  Percent reduction in IL-1β in bronchoalveolar lavage fluid with respect to the Model group: 23.21%
  Percent reduction in IL-2 in bronchoalveolar lavage fluid with respect to the Model group: 7.98%
  Percent reduction in IL-6 in bronchoalveolar lavage fluid with respect to the Model group: 55.36%
  Percent reduction in NF-κB in bronchoalveolar lavage fluid with respect to the Model group: 10.75%
  Percent reduction in TGF-β in bronchoalveolar lavage fluid with respect to the Model group: 15.87%
  Percent reduction in TNF-α in bronchoalveolar lavage fluid with respect to the Model group: 5.19%
  TGF-β in bronchoalveolar lavage fluid: 159.28 ± 11.09 pg/mL
[3]; negative = increase
  Percent reduction in IFN-γ in bronchoalveolar lavage fluid with respect to the Model group: -100.30%
  Percent reduction in PPAR-y in bronchoalveolar lavage fluid with respect to the Model group: -7.09%
[3]; [5]
  IL-1β in bronchoalveolar lavage fluid: 9.59 ± 0.90 pg/mL
  IL-2 in bronchoalveolar lavage fluid: 41.67 ± 4.69 pg/mL
  IL-6 in bronchoalveolar lavage fluid: 12.84 ± 1.02 pg/mL
  TNF-α in bronchoalveolar lavage fluid: 53.21 ± 0.90 pg/mL
[4]
  HE score and benefit rate, ≥4 points (fields/total); pathological tissue change: 7/18
  HE score and benefit rate, ≥4 points (percent of fields); probability of pathological tissue change: 38.9%
  HE score and benefit rate, ≥6 points (fields/total): 0/18
  HE score and benefit rate, ≥6 points (percent of fields): 0%
[4]; 18 fields of view
  HE score (pulmonary fibrosis, Ashcroft): 3.28 ± 0.83

Source: patent US20230210819A1, “USE OF BENZISOSELAZOLE DERIVATIVE FOR ANTI-CORONAVIRUS AND CONTROL OF INTERSTITIAL LUNG DISEASE (ILD) RELATED TO CORONAVIRUS” (SHANGHAI YUANXI MEDICINE CORP., priority 2020, published 2023)
